Test results taken from patent publication US20220330547A1, “INSECT REPELLENT” (Rilis Co., Ltd., priority 2019, published 2022).
Several values for one entry are separate records, joined by “and”; a condition that tells them apart may be missing. Identical values can stand only once. Like-named read-outs stand apart in the source and are kept apart here.

What was measured:
ticks [1] = assay: repellent effect of farnesyl acetone in an environment of 150° C. (background statement); type: in vivo
Description: For example, if there is a heat treatment step in the step of the anti-tick treatment, because oxidation reactivity due to heat is high, the repellent effect is already reduced to 30% or less after about 3 minutes in an environment of 150° C., and the repellent effect is reduced to 0% by at most 60 minutes. That is to say, it is troublesome to subject living materials of interest to the anti-tick treatment.

ticks [2] = settings: maintained over 14 days; cited from earlier work
ticks [3] = assay: tick repellency test (petri dish) with filter paper heated at 150° C.; type: in vivo; settings: 24 hours
Description: Subsequently, a relationship between the tick repellent effect resulting from a difference in oxidative modification rate and time was examined. In the test, mixed farnesyl acetone isomers, trans-farnesyl acetone, 2,4-DHAP and xanthoxyline were each dissolved to 1 g/m^2 in acetone, and each filter paper added thereto was heated at 150° C. only for 3 minutes, 5 minutes or 26 minutes. The filter paper not heated (hereinafter referred to as 150° C., 0 min) was also prepared.
Each filter paper was placed on the center of a petri dish with a diameter of 4 cm, and 0.05 g of an attractant sample was placed on the center of filter paper. The petri dish was placed on the center of another petri dish with a diameter of 9 cm, and about 10000 ticks were provided together with a medium to this another petri dish, which was left to stand for 24 hours. After that, ticks in the 4 cm petri dish were counted.
For the repellency rate, the proportion of the number of ticks which had not been attracted was calculated by the following formula using the number of ticks entering the petri dish on which only the attractant sample was placed, x (control), and contrarily the number of ticks entering the petri dish on which mixed farnesyl acetone isomers, trans-farnesyl acetone, 2,4-DHAP or xanthoxyline was placed, n.
Repellency rate={(x−n)/x} x 100 (%)
* a small number of entering ticks =high repellency rate
It should be noted that the heating time at 150° C. is not described in detail herein, but was converted by the following Arrhenius equation described in “Sumie Yoshioka, Stability of drugs and dosage forms, p. 142, 1995, Nankodo Co., Ltd.” as in Drug testing on Stability studies.
Arrhenius equation: k =A exp (-E/RT)
* Activation energy of stability studies E=22.1 kcal/mol.

[4] = oxidative modification of sample on filter paper, 40° C. for a week, measured by chromatography; type: physicochemical; settings: for Variation (Oxidation) (%): decrease of area after 1 week at 40° C.; for Day of experiment (area): filter paper 1 g/m^2, measured on the day; for After 1 week (area): filter paper 1 g/m^2, sealed flask, 40° C., 150 rpm, a week
ticks [5] = settings: 1 g/m^2, after 24 hours; for Mortality rate after correction (%): corrected by mortality rate without treatment
Description: Incidentally, a tick killing experiment was performed by a filter paper contact method to examine whether or not the insecticidal effect is contained in the repellent effect of 2,4-DHAP and xanthoxyline. In the experiment, ticks attracted to the untreated site in the repellent test by the petri-dish method were obtained on a filter paper by the sodium chloride floatation method, and living ticks were gently taken with a fine brush (one stroke). A 5 cm x 10 cm filter paper permeated with 1 g/m^2 of a sample was dried in air and shaped into a bag form. The taken ticks were put therein, and the opening thereof was closed with clips. After 24 hours, living ticks and dead ticks were measured.
In the tick killing test, 2,4-DHAP, xanthoxyline and DEET were compared. DEET is a compound used as a repellent for e.g. insects (anti-insect agent), and is also called N,N-diethyl-3-methylbenzamide or N,N-diethyl-m-toluamide.
In Table 3, the mortality rates (%) of 2,4-DHAP, xanthoxyline and DEET are values corrected by the mortality rate without treatment based on the mortality rate without treatment.

[6] = 25° C.; cited from earlier work
[7] = 1 g/m^2, 150° C. 0 min (not heated)
[8] = 1 g/m^2, 150° C. 3 min (corresponding to 25° C., about 4 months)
[9] = 1 g/m^2, 150° C. 5 min (corresponding to 25° C., about 7 months)
[10] = 1 g/m^2, 150° C. 26 min (corresponding to 25° C., about 3 years)

In the case of `CC(=O)CCC=C(C)CCC=C(C)CCC=C(C)C` [farnesyl acetone], the repellent effect (ticks [1]; after about 3 minutes at 150° C.) is listed as no more than 30%, the repellent effect (ticks [1]; by at most 60 minutes at 150° C.) is listed as 0% and the repellent effect (ticks [2]) is listed as no less than 95%.
Compound `CC(=O)CC/C=C(\C)CC/C=C(\C)CCC=C(C)C` [trans-Farnesyl acetone] has a Repellency rate (ticks [3]; [7]) of 94.30%, a Repellency rate (ticks [3]; [8]) of 90.50% and a Repellency rate (ticks [3]; [9]) of 65.70%. For the same compound, the Repellency rate (ticks [3]; 1 g/m^2, 150° C. 5 min (corresponding to 25° C., about 7 months), listed as trans-farnesyl acetone) was “below 65%”, the Repellency rate (ticks [3]; [10]) was 0.00% and the “Variation (Oxidation) (%)” value [4] was 19.29%. The “Variation (Oxidation) (%)” value ([4]; listed as trans-farnesyl acetone) was 19.29%, the “Day of experiment (area)” value [4] was 4022168 area and the “After 1 week (area)” value [4] was 3246218 area.
For `CCN(CC)C(=O)c1cccc(C)c1` [DEET, N,N-diethyl-3-methylbenzamide, reference compound], the Dead ticks (ticks [5]; Average) was 62, the Living ticks (ticks [5]; Average) was 2 and the “Mortality rate (%)” value (ticks [5]; Average) was 96.2%. The “Mortality rate after correction (%)” value (ticks [5]; Average) was 95.8%, the “Mortality rate (%)” value (ticks [5]; single run) was 100.0% and 92.3% and the “Mortality rate after correction (%)” value (ticks [5]; single run) was 100.0% and 91.5%.
Compound `CC(=O)c1ccc(O)cc1O` [2,4-DHAP, 2′,4′-dihydroxyacetophenone] has a Repellency rate (ticks [3]; [7]) of 39.80%, a Repellency rate (ticks [3]; [8]) of 37.40% and a Dead ticks (ticks [5]; Average) of 4. The Living ticks (ticks [5]; Average) was 106, the “Mortality rate (%)” value (ticks [5]; Average) was 3.4% and the Living ticks (ticks [5]; single run) was 81 and 131. For the same compound, the “Mortality rate (%)” value (ticks [5]; single run) was 2.4% and 4.4%, the “Mortality rate after correction (%)” value (ticks [5]; single run) was 0.0% and the “Variation (Oxidation) (%)” value [4] was 7.4% and 7.46%. The “Day of experiment (area)” value [4] was 12027833 area, the “After 1 week (area)” value [4] was 11130386 area and the transpiration properties [6] was 6×10^-5 mmHg.
`COc1cc(O)c(C(C)=O)c(OC)c1` [Xanthoxyline] gave a Repellency rate (ticks [3]; [7]) of 92.40%, a Repellency rate (ticks [3]; [8]) of 97.40% and a Repellency rate (ticks [3]; 1 g/m^2, 150° C. 3 min (corresponding to 25° C., about 4 months), listed as xanthoxyline) of no less than 90%. For the same compound, the Repellency rate (ticks [3]; [9]) was 95.80%, the Repellency rate (ticks [3]; 1 g/m^2, 150° C. 5 min (corresponding to 25° C., about 7 months), listed as xanthoxyline) was no less than 90% and the Repellency rate (ticks [3]; [10]) was 93.00%. The Dead ticks (ticks [5]; Average) was 24, the Living ticks (ticks [5]; Average) was 75 and the Dead ticks (ticks [5]; single run) was 26 and 22. For the same compound, the Living ticks (ticks [5]; single run) was 90 and 59, the “Variation (Oxidation) (%)” value [4] was 2.42% and the “Variation (Oxidation) (%)” value ([4]; listed as xanthoxyline) was 2.42%. The “Day of experiment (area)” value [4] was 5756751 area, the “After 1 week (area)” value [4] was 5617299 area and the transpiration properties [6] was 1.5×10^-5 mmHg.
With `CC(=O)CCC=C(C)CCC=C(C)CCC=C(C)C` (mixture of isomers) [Mixed farnesyl acetone isomers, farnesyl acetone] the Repellency rate (ticks [3]; [7]) was 90.60%, the Repellency rate (ticks [3]; [8]) was 94.90% and the Repellency rate (ticks [3]; [9]) was 24.60%. The Repellency rate (ticks [3]; 1 g/m^2, 150° C. 5 min (corresponding to 25° C., about 7 months), listed as mixed farnesyl acetone isomers) was 30%, the Repellency rate (ticks [3]; [10]) was 17.60% and the Repellency rate (ticks [3]; 1 g/m^2, 150° C. 26 min (corresponding to 25° C., about 3 years), listed as mixed farnesyl acetone isomers) was 17.6%. The “Variation (Oxidation) (%)” value [4] was 67.10%, the “Variation (Oxidation) (%)” value ([4]; listed as mixed farnesyl acetone isomers) was 67.10% and the “Day of experiment (area)” value [4] was 3145831 area. The “After 1 week (area)” value [4] was 1038335 area.
